Test results: patent US20110166079A1, “METHODS OF TREATING CANCER WITH APOE PEPTIDES” (COGNOSCI, INC., priority 2008, published 2011)

Columns and labels:
Akt kinase = assay: LPS-induced phosphorylation of Akt kinase in BV2 microglial cells (Western blot densitometry); format: cell-based, mouse; conditions: 10 ng/mL LPS, 1 μM COG112, normalized to actin, FIG. 2C
Procedure: To determine if COG peptides could also suppress activation of the upstream Akt kinase, BV2 microglial cells were treated with 10 ng/mL LPS alone or in the presence of 1 μM COG112 (SEQ ID NO: 2) peptide. Cell lysates were run on 10% polyacrylamide gels and subsequently transferred to nitrocellulose membranes. Blots were probed with an anti-phospho-Akt antibody or an antibody to actin. Densitometry analysis of the western blots was conducted and the signals from phosphorylated Akt kinase were normalized to those from actin.

IκB Kinase (IκK) = assay: IκK activity ELISA in YAMC cells exposed to C. rodentium; format: cell-based, mouse; conditions: FIG. 2D
Procedure: Akt kinase can phosphorylate and activate IκB Kinase (IκK), which leads to the de-repression of NFκB by IκB. As described above, COG peptides reduce phosphorylation of IκB and subsequent activation of NFκB induced by a Toll-like receptor 4 agonist (LPS). To determine if COG peptides also affect IκK activation, IκK activity was assessed in cytoplasmic cellular lysates of young adult mouse colon (YAMC) cells exposed to C. rodentium bacteria alone or in the presence of COG112 (SEQ ID NO: 2). IκK activity was measured using a specific ELISA assay (K-LISATM detection kit, Calbiochem/EMD Biosciences). Cytosolic cell extracts were incubated in glutathionine coated wells of a 96-well plate with a glutathione S transferase (GST)-tagged IκB-α fusion polypeptide substrate that includes the Ser32 and Ser36 IκB-α kinase phosphorylation sites. Phosphorylated GST-IκB-α substrate was detected using horseradish peroxidase-conjugated anti-phospho-IκB-α antibody. Optical density proportional to kinase activity was measured at 450 nm in a plate reader. The time course of IκK activation induced by C. rodentium in the presence (closed squares) or absence (open squares) of COG112 is shown in FIG. 2D. Time 0 indicates cells that were not stimulated with C. rodentium.

BCR/ABL fusion protein = assay: Phospho-BCR/ABL Western blot in K562 cells; format: cell-based; conditions: COG112 0.5 or 1 μM, 24 hours, FIG. 8A
Procedure: As discussed above, constitutive activation of the BCR/ABL fusion protein produced by the Philadelphia chromosome (e.g. product of the t(9;22)(q34;q11) translocation) is the primary causative factor in the persistent signaling that leads to unrestrained cell proliferation and survival in CML. […] Cell lysates were prepared and subject to Western blot analysis to detect activated phospho-BCR/ABL.

Ac-RQIKIWFQNRRMKWKKCLRVRLASHLRKLRKRLL-NH2 (N-terminus and C-terminus assumed) [COG112]
LPS-induced phosphorylation of the Akt kinase (Akt kinase): significantly decreased | IκK activity (IκB Kinase (IκK)): substantially reduced | level of phosphorylated BCR/ABL (BCR/ABL fusion protein): dose-dependent reduction
